Experimental data from US20250064789A1, “KETOAMIDE DERIVATIVES AND PHARMACEUTICAL USES THEREOF” (priority 2022, published 2025).

Key:
Format in all cases: cell-based
[1] = system: SARS-CoV-2 (B.1.1.529) BA.1 mutant strains; test: Antiviral activity at the cellular level by RT-qPCR in Vero E6-TMPRSS2 cells
[2] = system: SARS-CoV-2 Alpha (B.1.1.7) mutant strains; test: Antiviral activity by plaque method in Vero E6-TMPRSS2 cells: SARS-CoV-2 Alpha
[3] = system: SARS-CoV-2 Beta (B.1.351) mutant strains; test: Antiviral activity by plaque method in Vero E6-TMPRSS2 cells: SARS-CoV-2 Beta

SMILES | inhibitory activity on replication of SARS-CoV-2 (B.1.1.529) in Vero E6-TMPRSS2 cells (in words) [1] | anti-viral activity, times higher than Nirmatrelvir (PF-07321332) [2] [times] | anti-viral activity, times higher than Nirmatrelvir (PF-07321332) [3] [times]
COC[C@@H](NC(=O)C1CCCC(F)(F)C1)C(=O)N[C@H](Cc1ccccc1)C(=O)C(=O)NCc1nccs1 (stereo partly drawn) [Compound 398, N—((R)-1-(((R)-3,4-dioxo-1-phenyl-4-((thiazole-2-ylmethyl)amino)butan-2-yl)amino)-3-methoxy-1-oxopropan-2-yl)-3,3-difluorocyclohexane-1-formamide] | better inhibitory activity | 40.95 | 10.16
COC[C@@H](NC(=O)C1CCC(F)(F)CC1)C(=O)N[C@H](Cc1ccccc1)C(=O)C(=O)NCc1nccs1 [Compound 395] | better inhibitory activity |  | 
